Where two headings read alike, the source gives them in different places.
Assays:
5-HT2B receptor = 5-HT2B receptor (Homo sapiens (Human), UniProt P41595); experiment: IP accumulation assay, 5-HT2B; assay type: cell-based
Procedure: (§1) HEK293 cells expressing recombinant 5-HT2 receptors were added to sterile poly-D-lysine-coated 96-well microtiter plates (35,000 cells/well) and labeled with 0.6 μCi/well of [^3H]inositol in myoinositol-free DMEM for 18 h. Unincorporated [^3H]inositol was removed by aspiration and replaced with fresh myoinositol-free DMEM supplemented with LiCl (10 mM final) and pargyline (10 μM final). Serially diluted test compounds were then added and incubation was conducted for 2 h at 37° C. (5-HT2B, and 5-HT2A) and RT (5-HT2C). Incubations were then terminated by lysing cells with the addition of ice-cold 0.1 M formic acid followed by freezing at −80° C. After thawing, total [^3H]inositol phosphates were resolved from [^3H]inositol using AG1-X8 ion exchange resin (Bio-Rad) and [^3H]inositol phosphates were measured by scintillation counting using a Perkin Elmer TopCount® scintillation counter. All EC50 determinations were performed using 10 different concentrations and triplicate determinations were made at each test concentration.

5-HT2C receptor = 5-HT2C receptor (Homo sapiens (Human), UniProt P28335); experiment: IP accumulation assay, 5-HT2C; assay type: cell-based
Chain of 5-HT2C receptor (P28335 33-458): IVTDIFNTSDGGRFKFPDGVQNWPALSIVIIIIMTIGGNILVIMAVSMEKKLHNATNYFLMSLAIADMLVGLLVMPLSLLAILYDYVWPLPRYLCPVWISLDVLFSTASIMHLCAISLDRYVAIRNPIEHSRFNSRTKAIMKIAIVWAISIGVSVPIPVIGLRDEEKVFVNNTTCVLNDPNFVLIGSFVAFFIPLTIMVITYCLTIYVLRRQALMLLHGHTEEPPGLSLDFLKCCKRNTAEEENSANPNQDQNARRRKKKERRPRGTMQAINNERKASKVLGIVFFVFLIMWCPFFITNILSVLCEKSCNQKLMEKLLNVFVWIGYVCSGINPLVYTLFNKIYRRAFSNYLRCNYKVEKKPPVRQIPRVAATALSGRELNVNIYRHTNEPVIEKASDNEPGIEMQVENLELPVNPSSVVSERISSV
Procedure: as §1

5-HT2A receptor [1] = target: T1, 5-HT2A receptor (Homo sapiens (Human), UniProt P28223); experiment: IP accumulation assay, 5-HT2A; assay type: cell-based
T1 sequence (P28223 whole entry): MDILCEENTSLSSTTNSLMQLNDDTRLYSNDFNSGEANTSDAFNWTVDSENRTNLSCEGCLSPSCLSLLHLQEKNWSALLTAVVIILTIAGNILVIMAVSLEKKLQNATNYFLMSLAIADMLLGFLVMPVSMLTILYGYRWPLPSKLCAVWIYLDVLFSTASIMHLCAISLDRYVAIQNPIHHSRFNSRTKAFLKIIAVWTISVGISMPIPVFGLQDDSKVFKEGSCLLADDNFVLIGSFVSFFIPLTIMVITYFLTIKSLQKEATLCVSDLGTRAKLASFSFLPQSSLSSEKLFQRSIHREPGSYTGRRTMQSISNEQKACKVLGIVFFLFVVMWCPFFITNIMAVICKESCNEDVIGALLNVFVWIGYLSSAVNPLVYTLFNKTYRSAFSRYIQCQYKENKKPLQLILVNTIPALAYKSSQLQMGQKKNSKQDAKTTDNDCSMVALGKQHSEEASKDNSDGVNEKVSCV
Procedure: as §1

5-HT2A receptor [2] = target: T1, 5-HT2A receptor; experiment: DOI radioligand binding assay, 5-HT2A; settings: [125I]DOI competition, HEK293 cell membranes; read-out: DOI Binding 5HT2A
Procedure: For the compounds of Table A, the following procedure was used. HEK293 cells stably expressing recombinant 5-HT2 receptors were harvested, suspended in ice-cold phosphate buffered saline, pH 7.4 (PBS), and then centrifuged at 48,000 g for 20 min at 4° C. The resulting cell pellet was then re-suspended in wash buffer containing 20 mM HEPES, pH 7.4 and 0.1 mM EDTA, homogenized on ice using a Brinkman Polytron, and centrifuged (48,000 g for 20 min at 4° C.). The pellet was then resuspended in 20 mM HEPES, pH 7.4, homogenized on ice, and centrifuged (48,000 g for 20 min at 4° C.). Crude membrane pellets were stored at −80° C. until used for radioligand binding assays.
For the compounds of Table A, the following procedure was used. […] Experiments comprised addition of 95 μL of assay buffer (20 mM HEPES, pH 7.4, 10 mM MgCl2), 50 μL of membranes, 50 μL of radioligand stock, and 5 μL of test compound diluted in assay buffer to 96-well microtiter plates, which were then incubated for 1 h at room temperature. Assay incubations were terminated by rapid filtration through PerkinElmer F/C filtration plates under reduced pressure using a 96-well Packard filtration apparatus, followed by washing three times with ice cold assay buffer. Plates were then dried at 45° C. for a minimum of 2 h. Finally, 25 μL of BetaScint™ scintillation cocktail was added to each well and the plates were counted in a Packard TopCount® scintillation counter. In each competition study, test compounds were dosed at ten concentrations with triplicate determinations at each test concentration.

[3] = IP accumulation, HEK293 cells, 2 h at 37° C., read-out: EC50 5HT2B
[4] = IP accumulation, HEK293 cells, 2 h at RT, read-out: EC50 5HT2C
[5] = IP accumulation, HEK293 cells, 2 h at 37° C., read-out: EC50 5HT2A

Chain of 5-HT2B receptor (P41595 whole entry): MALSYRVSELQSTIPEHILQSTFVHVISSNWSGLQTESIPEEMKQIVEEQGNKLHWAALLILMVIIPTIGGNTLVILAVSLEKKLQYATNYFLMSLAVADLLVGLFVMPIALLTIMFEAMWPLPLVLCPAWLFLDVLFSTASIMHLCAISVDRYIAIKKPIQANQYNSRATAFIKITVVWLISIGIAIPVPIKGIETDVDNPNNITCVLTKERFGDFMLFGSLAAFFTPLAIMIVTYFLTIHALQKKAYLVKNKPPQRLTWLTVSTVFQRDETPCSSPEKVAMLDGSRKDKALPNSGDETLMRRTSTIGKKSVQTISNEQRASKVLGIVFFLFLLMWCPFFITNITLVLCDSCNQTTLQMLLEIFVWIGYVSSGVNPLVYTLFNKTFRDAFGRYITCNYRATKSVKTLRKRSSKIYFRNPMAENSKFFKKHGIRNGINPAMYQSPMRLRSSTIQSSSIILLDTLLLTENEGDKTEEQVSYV

Compound | EC50 (5-HT2B receptor; [3]) | EC50 (5-HT2C receptor; [4]) | EC50 (5-HT2A receptor [1]) | further results
c1cc(-c2ccc3c(c2)OCO3)c2c(n1)N1CCNC[C@H]1CC2 [Compound 101, (R)-4-(benzo[d][1,3]dioxol-5-yl)-6,6a,7,8,9,10-hexahydro-5H-pyrazino[1,2-a][1,8]naphthyridine] | ≥ 100 µM | 7.51 µM | ≥ 100 µM | –
CNC(=O)c1ccnc2c1CC[C@@H]1CNCCN21 [Compound 102, (R)-N-methyl-6,6a,7,8,9,10-hexahydro-5H-pyrazino[1,2-a][1,8]naphthyridine-4-carboxamide] | ≥ 100 µM | 100 µM | ≥ 100 µM | –
O=C(Nc1ccnc2c1CC[C@@H]1CNCCN21)c1ccccc1Cl [Compound 104, (R)-2-chloro-N-(6,6a,7,8,9,10-hexahydro-5H-pyrazino[1,2-a][1,8]naphthyridin-4-yl)benzamide] | ≥ 100 µM | 100 µM | ≥ 100 µM | –
FC(F)(F)Oc1cccc(-c2ccnc3c2CC[C@@H]2CNCCN32)c1 [Compound 105, (R)-4-(3-(trifluoromethoxy)phenyl)-6,6a,7,8,9,10-hexahydro-5H-pyrazino[1,2-a][1,8]naphthyridine] | ≥ 100 µM | 3.07 µM | – | EC50 (5-HT2A receptor [1]; [5]): ≥ 100 µM
CCCC(C)c1ccnc2c1CC[C@@H]1CNCCN21 (stereo partly drawn) [Compound 109, (6aR)-4-(pentan-2-yl)-6,6a,7,8,9,10-hexahydro-5H-pyrazino[1,2-a][1,8]naphthyridine] | – | – | – | Ki (5-HT2A receptor [2]): 25.9 nM
CCOC(=O)Nc1ccnc2c1CC[C@@H]1CNCCN21 [Compound 123, (R)-ethyl(6,6a,7,8,9,10-hexahydro-5H-pyrazino[1,2-a][1,8]naphthyridin-4-yl)carbamate] | ≥ 100 µM | 0.898 µM | ≥ 100 µM | –
O=C(Cc1ccccc1)Nc1ccnc2c1CC[C@@H]1CNCCN21 [Compound 124, (R)-N-(6,6a,7,8,9,10-hexahydro-5H-pyrazino[1,2-a][1,8]naphthyridin-4-yl)-2-phenylacetamide] | ≥ 100 µM | 3.66 µM | ≥ 100 µM | –
CCCC(=O)Nc1ccnc2c1CC[C@@H]1CNCCN21 [Compound 125, (R)-N-(6,6a,7,8,9,10-hexahydro-5H-pyrazino[1,2-a][1,8]naphthyridin-4-yl)butyramide] | ≥ 100 µM | 100 µM | ≥ 100 µM | –
c1cc(C2CCCCC2)c2c(n1)N1CCNC[C@H]1CC2 [Compound 127, (R)-4-cyclohexyl-6,6a,7,8,9,10-hexahydro-5H-pyrazino[1,2-a][1,8]naphthyridine] | 0.919 µM | 1.51 µM | 9.07 µM | –
O=C(Nc1ccnc2c1CC[C@@H]1CNCCN21)N1CCCC1 [Compound 131, (R)-N-(6,6a,7,8,9,10-hexahydro-5H-pyrazino[1,2-a][1,8]naphthyridin-4-yl)pyrrolidine-1-carboxamide] | ≥ 100 µM | 100 µM | ≥ 100 µM | –
FC(F)(F)c1ccccc1-c1ccnc2c1CC[C@@H]1CNCCN21 [Compound 134, (R)-(2-(trifluoromethyl)phenyl)-6,6a,7,8,9,10-hexahydro-5H-pyrazino[1,2-a][1,8]naphthyridine] | 1.73 µM | 5.61 µM | ≥ 100 µM | –
COc1ccc(-c2ccnc3c2CC[C@@H]2CNCCN32)cc1 [Compound 135, (R)-4-(4-methoxyphenyl)-6,6a,7,8,9,10-hexahydro-5H-pyrazino[1,2-a][1,8]naphthyridine] | ≥ 100 µM | 5.41 µM | ≥ 100 µM | –
O=C(Nc1ccnc2c1CC[C@@H]1CNCCN21)c1cccc(F)c1F [Compound 138, (R)-2,3-difluoro-N-(6,6a,7,8,9,10-hexahydro-5H-pyrazino[1,2-a][1,8]naphthyridin-4-yl)benzamide] | ≥ 100 µM | 5.82 µM | – | EC50 (5-HT2A receptor [1]; [5]): ≥ 100 µM
O=C(Nc1ccnc2c1CC[C@@H]1CNCCN21)c1ccccc1 [Compound 139, (R)-N-(6,6a,7,8,9,10-hexahydro-5H-pyrazino[1,2-a][1,8]naphthyridin-4-yl)benzamide] | ≥ 100 µM | 100 µM | ≥ 100 µM | –
O=C(NCC(F)F)c1ccnc2c1CC[C@@H]1CNCCN21 [Compound 140, (R)-N-(2,2-difluoroethyl)-6,6a,7,8,9,10-hexahydro-5H-pyrazino[1,2-a][1,8]naphthyridine-4-carboxamide] | ≥ 100 µM | 4.62 µM | ≥ 100 µM | –
O=C(Nc1ccnc2c1CC[C@@H]1CNCCN21)C1CC1 [Compound 141, (R)-N-(6,6a,7,8,9,10-hexahydro-5H-pyrazino[1,2-a][1,8]naphthyridin-4-yl)cyclopropanecarboxamide] | ≥ 100 µM | 100 µM | ≥ 100 µM | –
c1cnc2c(c1)CC[C@@H]1CNCCN21 [Compound 148, (R)-6,6a,7,8,9,10-hexahydro-5H-pyrazino[1,2-a][1,8]naphthyridine] | 0.0612 µM | 0.0934 µM | – | EC50 (5-HT2A receptor [1]; [5]): 100 µM
c1cc(C2CCC2)c2c(n1)N1CCNC[C@H]1CC2 [Compound 149, (R)-4-cyclobutyl-6,6a,7,8,9,10-hexahydro-5H-pyrazino[1,2-a][1,8]naphthyridine] | – | – | – | Ki (5-HT2A receptor [2]): 10.3 nM; EC50 (5-HT2A receptor [1]; [5]): 0.236 µM
Clc1ccnc2c1CC[C@@H]1CNCCN21 [Compound 150, (R)-4-chloro-6,6a,7,8,9,10-hexahydro-5H-pyrazino[1,2-a][1,8]naphthyridine] | – | – | 1.33 µM | EC50 (5-HT2B receptor): 0.0454 µM; EC50 (5-HT2C receptor): 0.00519 µM
c1cc(C2CC2)c2c(n1)N1CCNC[C@H]1CC2 [Compound 151, (R)-4-cyclopropyl-6,6a,7,8,9,10-hexahydro-5H-pyrazino[1,2-a][1,8]naphthyridine] | – | – | 0.435 µM | EC50 (5-HT2B receptor): 0.015 µM; EC50 (5-HT2C receptor): 0.00622 µM
c1cc2c(cn1)N1CCNC[C@H]1CC2 [Compound 153, (R)-6,6a,7,8,9,10-hexahydro-5H-pyrazino[1,2-a][1,7]naphthyridine] | 0.779 µM | 0.329 µM | – | EC50 (5-HT2A receptor [1]; [5]): 100 µM
CC1CC2CNCCN2c2ncccc21 (stereo not drawn) [Compound 158, 5-methyl-6,6a,7,8,9,10-hexahydro-5H-pyrazino[1,2-a][1,8]naphthyridine] | – | – | – | Ki (5-HT2A receptor [2]): 1080 nM
CCc1c(COC(C)C)cnc2c1CC[C@@H]1CNCCN21 [Compound 163, (R)-4-ethyl-3-(isopropoxymethyl)-6,6a,7,8,9,10-hexahydro-5H-pyrazino[1,2-a][1,8]naphthyridine] | – | – | – | Ki (5-HT2A receptor [2]): 468 nM
CCc1c(C2CCC2)cnc2c1CC[C@@H]1CNCCN21 [Compound 166, (R)-3-cyclobutyl-4-ethyl-6,6a,7,8,9,10-hexahydro-5H-pyrazino[1,2-a][1,8]naphthyridine] | – | – | – | Ki (5-HT2A receptor [2]): 958 nM
CSc1nc(Cl)c2c(n1)N1CCNC[C@H]1CC2 [Compound 169, (R)-4-chloro-2-(methylthio)-6,6a,7,8,9,10-hexahydro-5H-pyrazino[1′,2′:1,6]pyrido[2,3-d]pyrimidine] | – | – | – | Ki (5-HT2A receptor [2]): 129 nM
CCc1c(CC2CCCC2)cnc2c1CC[C@@H]1CNCCN21 [Compound 171, (R)-3-(cyclopentylmethyl)-4-ethyl-6,6a,7,8,9,10-hexahydro-5H-pyrazino[1,2-a][1,8]naphthyridine] | – | – | – | Ki (5-HT2A receptor [2]): 351 nM
CCCc1cncc2c1CC[C@@H]1CNCCN21 [Compound 173, (R)-4-propyl-6,6a,7,8,9,10-hexahydro-5H-pyrazino[1,2-a][1,7]naphthyridine] | – | – | – | Ki (5-HT2A receptor [2]): 44 nM

Reference: patent US10836764B2, “5-HT2C receptor agonists and compositions and methods of use” (Arena Pharmaceuticals, Inc., priority 2016, dated 2020)
